The source of these data is paper PMC4207132 (Journal of Medicinal Chemistry, 2014).

In the test the target is pVHL:EloB:EloC (VBC) complex (Homo sapiens, UniProt P40337). Type of test: binding.

Molecules are shown by their SMILES.

pVHL:EloB:EloC (VBC) complex, sequence (Q15369 17-112): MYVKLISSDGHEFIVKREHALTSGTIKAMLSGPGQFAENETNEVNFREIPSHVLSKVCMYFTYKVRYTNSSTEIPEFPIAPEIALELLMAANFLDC
pVHL:EloB:EloC (VBC) complex, sequence (P40337 54-213): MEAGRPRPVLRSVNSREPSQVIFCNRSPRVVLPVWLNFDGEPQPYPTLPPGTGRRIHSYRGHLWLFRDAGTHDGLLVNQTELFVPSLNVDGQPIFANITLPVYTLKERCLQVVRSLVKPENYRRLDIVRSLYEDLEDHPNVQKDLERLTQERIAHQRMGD
pVHL:EloB:EloC (VBC) complex, sequence (Q15370 1-104, further chain): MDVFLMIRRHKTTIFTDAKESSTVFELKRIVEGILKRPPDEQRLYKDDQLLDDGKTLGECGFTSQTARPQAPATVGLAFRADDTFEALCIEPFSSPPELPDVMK

Regarding `CC(=O)N[C@H](C(=O)N1C[C@H](O)C[C@H]1C(=O)NCc1ccc(-c2scnc2C)cc1)C(C)(C)C` [ligand 7, (2S,4R)-1-((S)-2-Acetamido-3,3-dimethylbutanoyl)-4-hydroxy-N-(4-(4-methylthiazol-5-yl)benzyl)pyrrolidine-2-carboxamide], the “increase in affinity compared to 5” value was roughly 20 fold.
